Structures can show the parent of a compound that is named as a salt. Where two headings read alike, the source gives them in different places.

The target in assay [1] is human GLP-1R (Homo sapiens, UniProt P43220, G168S). Nature of the assay: CHO GLP-1R Clone H6—Assay 1: HTRF cAMP cell-based functional agonist assay (high GLP-1R density). The note with it: for Assay 1 Emax (%): CHO GLP-1R Clone H6; for Assay 1 Emax (%) / Emax: relative to saturating concentration of full agonist GLP-1 (1 μM), arithmetic mean; for EC50: CHO GLP-1R Clone H6, cAMP HTRF, geometric mean; for Emax: read-out: Assay 1 Emax (%), CHO GLP-1R Clone H6. Background: Time-resolved FRET reads energy transfer from a long-lived donor to a nearby acceptor.
Chain of human GLP-1R (Homo sapiens, UniProt P43220, G168S) (P43220 24-463 G168S limits assumed): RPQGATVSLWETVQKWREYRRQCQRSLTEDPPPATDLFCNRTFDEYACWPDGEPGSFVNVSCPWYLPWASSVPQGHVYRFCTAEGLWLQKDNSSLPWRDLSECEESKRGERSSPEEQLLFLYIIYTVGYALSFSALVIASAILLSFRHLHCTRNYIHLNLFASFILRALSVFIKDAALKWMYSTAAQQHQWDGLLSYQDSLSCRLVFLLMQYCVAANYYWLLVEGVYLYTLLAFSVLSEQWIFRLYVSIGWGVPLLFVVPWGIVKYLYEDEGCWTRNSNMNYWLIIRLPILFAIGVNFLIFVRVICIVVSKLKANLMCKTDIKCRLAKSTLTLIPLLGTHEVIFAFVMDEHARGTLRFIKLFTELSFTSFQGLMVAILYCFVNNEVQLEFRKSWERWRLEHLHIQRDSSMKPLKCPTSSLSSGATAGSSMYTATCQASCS
Method: GLP-1R-mediated agonist activity was determined with a cell-based functional assay utilizing an HTRF (Homogeneous Time-Resolved Fluorescence) cAMP detection kit (cAMP HI Range Assay Kit; CisBio cat #62AM6PEJ) that measures cAMP levels in the cell. The method is a competitive immunoassay between native cAMP produced by the cells and exogenous cAMP labeled with the dye d2. The tracer binding is visualized by a mAb anti-cAMP labeled with Cryptate. The specific signal (i.e. energy transfer) is inversely proportional to the concentration of cAMP in either standard or experimental sample.
The human GLP-1R coding sequence (NCBI Reference Sequence NP_002053.3, including naturally-occurring variant Gly168Ser) was subcloned into pcDNA3 (Invitrogen) and a cell line stably expressing the receptor was isolated (designated Clone H6).
Cells were removed from cryopreservation, re-suspended in 40 mL of Dulbecco's Phosphate Buffered Saline (DPBS-Lonza Cat #17-512Q) and centrifuged at 800×g for 5 min at 22° C. The cell pellet was then re-suspended in 10 mL of growth medium [DMEM/F12 1:1 Mixture with HEPES, L-Gln, 500 mL (DMEM/F12 Lonza Cat #12-719F), 10% heat inactivated fetal bovine serum (Gibco Cat #16140-071), 5 mL of 100× Pen-Strep (Gibco Cat #15140-122), 5 mL of 100× L-Glutamine (Gibco Cat #25030-081) and 500 μg/mL Geneticin (G418) (Invitrogen #10131035)]. A 1 mL sample of the cell suspension in growth media was counted on a Becton Dickinson ViCell to determine cell viability and cell count per mL. The remaining cell suspension was then adjusted with growth media to deliver 2000 viable cells per well using a Matrix Combi Multidrop reagent dispenser, and the cells were dispensed into a white 384 well tissue culture treated assay plate (Corning 3570). The assay plate was then incubated for 48 hours at 37° C. in a humidified environment in 5% carbon dioxide.
Varying concentrations of each compound to be tested (in DMSO) were diluted in assay buffer (HBSS with Calcium/Magnesium (Lonza/BioWhittaker cat #10-527F)/0.1% BSA (Sigma Aldrich cat #A7409-1L)/20 mM HEPES (Lonza/BioWhiftaker cat #17-737E) containing 100 μM 3-isobutyl-1-methylxanthin (IBMX; Sigma cat #15879). The final DMSO concentration is 1%.
After 48 hours, the growth media was removed from the assay plate wells, and the cells were treated with 20 μL of the serially diluted compound in assay buffer for 30 minutes at 37° C. in a humidified environment in 5% carbon dioxide. Following the 30 minute incubation, 10 μL of labeled d2 cAMP and 10 μL of anti-cAMP antibody (both diluted 1:20 in cell lysis buffer; as described in the manufacturer's assay protocol) were added to each well of the assay plate. The plates were then incubated at room temperature and after 60 minutes, changes in the HTRF signal were read with an Envision 2104 multi-label plate reader using excitation of 330 nm and emissions of 615 and 665 nm. Raw data were converted to nM cAMP by interpolation from a cAMP standard curve (as described in the manufacturer's assay protocol) and the percent effect was determined relative to a saturating concentration of the full agonist GLP-17-36 (1 μM) included on each plate. EC50 determinations were made from agonist dose-response curves analyzed with a curve fitting program using a 4-parameter logistic dose response equation.

Assay [2] deals with human GLP-1R (Homo sapiens (Human), UniProt P43220, L260F). Nature of the assay: CHO GLP-1R Clone C6—Assay 2: HTRF cAMP cell-based functional agonist assay (low GLP-1R density). The note with it: for EC50: CHO GLP-1R Clone C6, cAMP HTRF, geometric mean; for Assay 2 Emax (%) / Emax: CHO GLP-1R Clone C6, relative to saturating concentration of full agonist GLP-1 (1 μM), arithmetic mean; for Emax: read-out: Assay 2 Emax (%).
Chain of human GLP-1R (Homo sapiens (Human), UniProt P43220, L260F) (P43220 24-463 L260F): as the sequence (P43220 24-463 G168S limits assumed) above, with S145G, L237F counted along it
Method: GLP-1R-mediated agonist activity was determined with a cell-based functional assay utilizing an HTRF (Homogeneous Time-Resolved Fluorescence) cAMP detection kit (cAMP HI Range Assay Kit; Cis Bio cat #62AM6PEJ) that measures cAMP levels in the cell. The method is a competitive immunoassay between native cAMP produced by the cells and exogenous cAMP labeled with the dye d2. The tracer binding is visualized by a mAb anti-cAMP labeled with Cryptate. The specific signal (i.e. energy transfer) is inversely proportional to the concentration of cAMP in either a standard or an experimental sample.
The human GLP-1R coding sequence (NCBI Reference Sequence NP_002053.3, including naturally-occurring variant Leu260Phe) was subcloned into pcDNA5-FRT-TO and a clonal CHO cell line stably expressing a low receptor density was isolated using the Flp-In™ T-Rex™ System, as described by the manufacturer (ThermoFisher).
Cells were removed from cryopreservation, re-suspended in 40 mL of Dulbecco's Phosphate Buffered Saline (DPBS-Lonza Cat #17-512Q) and centrifuged at 800×g for 5 min at 22° C. The DPBS was aspirated, and the cell pellet was re-suspended in 10 mL of complete growth medium (DMEM:F12 1:1 Mixture with HEPES, L-Gln, 500 mL (DMEM/F12 Lonza Cat #12-719F), 10% heat inactivated fetal bovine serum (Gibco Cat #16140-071), 5 mL of 100× Pen-Strep (Gibco Cat #15140-122), 5 mL of 100× L-Glutamine (Gibco Cat #25030-081), 700 μg/mL Hygromycin (Invitrogen Cat #10687010) and 15 μg/mL Blasticidin (Gibco Cat #R21001). A 1 mL sample of the cell suspension in growth media was counted on a Becton Dickinson ViCell to determine cell viability and cell count per mL. The remaining cell suspension was then adjusted with growth media to deliver 1600 viable cells per well using a Matrix Combi Multidrop reagent dispenser, and the cells were dispensed into a white 384 well tissue culture treated assay plate (Corning 3570). The assay plate was then incubated for 48 h at 37° C. in a humidified environment (95% O2, 5% CO2)
Varying concentrations of each compound to be tested (in DMSO) were diluted in assay buffer [HBSS with Calcium/Magnesium (Lonza/BioWhittaker cat #10-527F)/0.1% BSA (Sigma Aldrich cat #A7409-1L)/20 mM HEPES (Lonza/BioWhittaker cat #17-737E)] containing 100 μM 3-isobutyl-1-methylxanthin (IBMX; Sigma cat #15879). The final DMSO concentration in the compound/assay buffer mixture is 1%.
After 48 h, the growth media was removed from the assay plate wells, and the cells were treated with 20 μL of the serially diluted compound in assay buffer for 30 min at 37° C. in a humidified environment (95% O2, 5% CO2). Following the 30 min incubation, 10 μL of labeled d2 cAMP and 10 μL of anti-cAMP antibody (both diluted 1:20 in cell lysis buffer; as described in the manufacturer's assay protocol) were added to each well of the assay plate. The plates were then incubated at room temperature and after 60 minutes, changes in the HTRF signal were read with an Envision 2104 multi-label plate reader using excitation of 330 nm and emissions of 615 and 665 nm. Raw data were converted to nM cAMP by interpolation from a cAMP standard curve (as described in the manufacturer's assay protocol) and the percent effect was determined relative to a saturating concentration of the full agonist GLP-1 (1 μM) included on each plate. EC50 determinations were made from agonist dose response curves analyzed with a curve fitting program using a 4-parameter logistic dose response equation.

Usually EC50 stands for the concentration that produces a half-maximal response. In the case of `C[C@H]1CN(c2cccc(OCc3ccc(C#N)cc3)n2)CCN1Cc1nc2ccc(C(=O)O)cc2n1CC1CCCO1` (single isomer, unassigned; diastereomer 1) [Example 14A-07], the “Assay 1 Emax (%)” value at human GLP-1R [1] is listed as 63%. Besides, the EC50 is 1.9 nM on human GLP-1R [1] (read-out: Assay 1 EC50) and 55 nM on human GLP-1R [2].
Take `C[C@H]1CN(c2cccc(OCc3ccc(C#N)cc3F)n2)CCN1Cc1nc2ccc(C(=O)O)cc2n1CC1CCCO1` (single isomer, unassigned; diastereomer 1) [Example 14A-11]: the “Assay 1 Emax (%)” value on human GLP-1R [1] is 65%. For the same molecule, the half-maximal effective concentration (EC50) on human GLP-1R [1] (read-out: Assay 1 EC50) stood at 7 nM; on human GLP-1R [2], 140 nM. Moreover, the “Assay 2 Emax (%)” value at human GLP-1R [2] was determined as 71%.
`C[C@H]1CN(c2cccc(OCc3ccc(C#N)cc3)n2)CCN1Cc1nc2ccc(C(=O)O)cc2n1CC1CCCO1` (single isomer, unassigned; diastereomer 2) [Example 14A-08]: the EC50 was determined as 19 nM at human GLP-1R [1] (read-out: Assay 1 EC50) and 380 nM on human GLP-1R [2].
In the case of `C[C@H]1CN(c2cccc(OCc3ccc(C#N)cc3F)n2)CCN1Cc1nc2ccc(C(=O)O)cc2n1CC1CCCO1` (single isomer, unassigned; diastereomer 2) [Example 14A-12], the EC50 was 1.4 nM on human GLP-1R [1] (read-out: Assay 1 EC50) and 20 nM on human GLP-1R [2].
Turning to `N#Cc1ccc(COc2cccc(C3CCN(Cc4nc5ccc(C(=O)O)cc5n4CC4CCCO4)CC3)n2)cc1` (single isomer, unassigned; enantiomer 1) [Example 14A-01, 2-[(4-{6-[(4-cyanobenzyl)oxy]pyridin-2-yl}piperidin-1-yl)methyl]-1-(tetrahydrofuran-2-ylmethyl)-1H-benzimidazole-6-carboxylic acid,enantiomer 1], the EC50 on human GLP-1R [1] (read-out: Assay 1 EC50) turned out to be 5.6 nM. Moreover, at human GLP-1R [2], the EC50 stood at 200 nM and the “Assay 2 Emax (%)” value amounted to 89%.
Usually Emax stands for the greatest response seen or fitted, relative to the assay's reference. Consider `COCCn1c(CN2CCN(c3cccc(OCc4ccc(Cl)cc4F)n3)CC2C(F)(F)F)nc2ccc(C(=O)O)cc21` (single isomer, unassigned; enantiomer 2) [Example 12A-02, 2-((4-(6-((4-Chloro-2-fluorobenzyl)oxy)pyridin-2-yl)-2-(trifluoromethyl)piperazin-1-yl)methyl)-1-(2-methoxyethyl)-1H-benzo[d]imidazole-6-carboxylic acid, enantiomer 2], for which the EC50 at human GLP-1R [1] (Assay 1 EC50 (nM)) is 36 nM; at human GLP-1R [2], 1600 nM. For the same molecule, the results for the Emax at human GLP-1R [1] and on human GLP-1R [2] were 71% and 82%, respectively.
For the molecule `N#Cc1ccc(COc2cccc(C3CCN(Cc4nc5ccc(C(=O)O)cc5n4CC4CCCO4)CC3)n2)cc1` (single isomer, unassigned; enantiomer 2) [Example 14A-02, 2-[(4-{6-[(4-cyanobenzyl)oxyhoyridin-2-yl}piperidin-1-yl)methyl]-1-(tetrahydrofuran-2-ylmethyl)-1H-benzimidazole-6-carboxylic acid,enantiomer 2], the EC50 at human GLP-1R [1] (read-out: Assay 1 EC50) came to 94 nM. Also, on human GLP-1R [2], the EC50 worked out at 1500 nM and the “Assay 2 Emax (%)” value amounted to 69%.
Regarding `Cn1c(CN2CCC(c3cccc(OCc4ccc(Cl)cc4F)n3)CC2)nc2ccc(C(=O)O)cc21` [Example 1A-01, 2-((4-(6-((4-Chloro-2-fluorobenzyl)oxy)pyridin-2-yl)piperidin-1-yl)methyl)-1-methyl-1H-benzo[d]imidazole-6-carboxylic acid hydrochloride], the 50% effective concentration (EC50) on human GLP-1R [1] (read-out: Assay 1 EC50) worked out at 81 nM; at human GLP-1R [2], 910 nM. In addition, the Emax stood at 77% on human GLP-1R [1] and 94% on human GLP-1R [2].
For the molecule `COCCn1c(CN2CCC(c3ccc(F)c(OCc4ccc(Cl)cc4F)n3)CC2)nc2ccc(C(=O)O)cc21` [Example 1A-04, 2-[(4-{6-[(4-chloro-2-fluorobenzyl)oxy]-5-fluoropyridin-2-yl}piperidin-1-yl)methyl]-1-(2-methoxyethyl)-1H-benzimidazole-6-carboxylic acid], the concentration giving a half-maximal response (EC50) at human GLP-1R [1] (read-out: Assay 1 EC50) is 21 nM; at human GLP-1R [2], 350 nM. For the same molecule, the values for the Emax at human GLP-1R [1] and at human GLP-1R [2] were 79% and 82%, respectively.

Source of the values: patent US10208019B2, “GLP-1 receptor agonists and uses thereof” (Pfizer Inc., priority 2016, dated 2019).
